What was measured:
Format in all cases: cell-based
[1] = system: IL12b protein levels; assay: Secondary screening: IL12b protein ELISA in M1 polarized bone marrow derived macrophages; details: Z score of IL12b protein (ELISA); 1 μM compound, 24 h, IFNg+LPS (M1) polarized bone marrow derived macrophages
Method: (§1) Primary screening was performed on 507 compounds identified by the above-described computational screening. Bone marrow derived macrophages were plated into 96 well plates at d7 post-harvest and incubated with 1 μM compound and polarization reagents for 24 h. Primary screening was performed on cells polarized with interferon gamma (IFNg)+Lipopolysaccharide (LPS) (M1 polarization). Methods of inducing macrophage polarization are known in the art, e.g., as described in Mosser et al., Curr. Protoc. Immunol. 2008 November; Chapter 14:Unit 14.2. doi: 10.1002/0471142735.im1402s83. After 24 h, cell supernatants were removed and screened for IL12b and CCL2 protein levels using an enzyme linked immunosorbent assay (ELISA). Additionally, viability of polarized macrophages incubated with compounds was measured using an MTT assay, a colorimetric assay that measures cell metabolic activity by quantifying NAD(P)H-dependent cellular oxidoreductase reduction of the tetrazolium dye MTT 3-(4,5-dimethylthiazol-2-yl)-2,5-diphenyltetrazolium bromide to its insoluble purple colored formazan. Compounds that increased IL12b protein levels or decreased CCL2 protein levels and reduced viability less than 10% were selected for secondary screening. Secondary screening was performed as described for primary screening with a subset of 141 of the original compounds.

[2] = system: CCL2 protein levels; assay: Primary screening: CCL2 protein ELISA in M1 polarized bone marrow derived macrophages; details: Z score of CCL2 protein (ELISA); 1 μM compound, 24 h, IFNg+LPS (M1) polarized bone marrow derived macrophages
Method: as §1

[3] = system: CCL2 protein levels; assay: Secondary screening: CCL2 protein ELISA in M1 polarized bone marrow derived macrophages; details: Z score of CCL2 protein (ELISA); 1 μM compound, 24 h, IFNg+LPS (M1) polarized bone marrow derived macrophages
Method: as §1

[4] = system: IL12b protein levels; assay: IL12b protein expression (ELISA) after M1 polarization with bulk synthesized compounds; details: 10 micromolar compound 1 h before IFNgamma+LPS (M1) polarization, supernatants 24 h post-stimulation, read-out: IL12B protein expression (Percent of Control)
Method: Compounds with the highest activity levels in the primary, secondary and tertiary screening assays were resynthesized in bulk and then tested for their effects on protein expression of inflammatory cytokines after M1 (IFNg+LPS) macrophage polarization. Bone marrow derived macrophages were plated into 12 well plates at d7 post-harvest and incubated for 1 h with 10 micromolar compound prior to polarization in the presence of bulk synthesized compounds 1-14. Cells were then polarized by the addition of either IFNgamma+LPS (M1) and cell supernatants were harvested 24 h post-stimulation. Methods of inducing macrophage polarization are known in the art, e.g., as described in Mosser et al., Curr. Protoc. Immunol. 2008 November; Chapter 14:Unit 14.2. doi: 10.1002/0471142735.im1402s83. After 24 h, cell supernatants were removed and screened for IL12b protein levels using an enzyme linked immunosorbent assay (ELISA). Increases in IL12b protein levels induced by compounds were recorded as percent increase in IL12b protein expression compared to IL12b expression in the absence of compounds.

[5] = system: IL12b protein levels; assay: Primary screening: IL12b protein ELISA in M1 polarized bone marrow derived macrophages; details: Z score of IL12b protein (ELISA); 1 μM compound, 24 h, IFNg+LPS (M1) polarized bone marrow derived macrophages
Method: as §1

[6] = system: IL-1beta expression; assay: RNA screening: IL-1beta expression in M1 (IFNg+LPS) polarized macrophages, quantitative RT-PCR; parameters: key: −: significant decrease in mRNA vs control (mRNA levels above 50% of control); −−: significant decrease in mRNA vs control (mRNA levels below 50% of control); +: significant increase in mRNA vs control; =: no significant change vs control; details: mRNA vs control; 1 μM compound 1 h before IFNgamma+LPS (M1) polarization, mRNA harvested 6 h post-stimulation
Method: (§2) Compounds with the highest activity levels in the primary and secondary screening assays were tested for their effects on transcription of inflammatory cytokines after M1 (IFNg+LPS) and M2 (IL-4) macrophage polarization. Bone marrow derived macrophages were plated into 12 well plates at d7 post-harvest and incubated for 1 h with 1 μM compound prior to polarization. Cell were then polarized by the addition of either IFNgamma+LPS (M1) or IL-4 (M2) and mRNA was harvested 6 h post-stimulation. Quantitative RT-PCR was used to determine the levels of IL-1beta expression in M1 polarized macrophages and of Arginase-1 and TGF-beta expression in M2 polarized macrophages. Compounds were selected from RNA screening that increased IL-1beta expression or decreased Arginase-1 or TGF-beta expression.

[7] = system: TGF-beta expression; assay: RNA screening: TGF-beta expression in M2 (IL-4) polarized macrophages, quantitative RT-PCR; parameters: key: −: significant decrease in mRNA vs control (mRNA levels above 50% of control); −−: significant decrease in mRNA vs control (mRNA levels below 50% of control); +: significant increase in mRNA vs control; =: no significant change vs control; details: mRNA vs control; 1 μM compound 1 h before IL-4 (M2) polarization, mRNA harvested 6 h post-stimulation
Method: as §2

[8] = system: Arginase-1 expression; assay: RNA screening: Arginase-1 expression in M2 (IL-4) polarized macrophages, quantitative RT-PCR; details: Macrophage; mRNA vs control; 1 μM compound 1 h before IL-4 (M2) polarization, mRNA harvested 6 h post-stimulation; read-out: RNA Screening IL-4 Arg 1
Method: as §2

Row | Compound | Secondary Screen ZIL12b [1] | Primary Screen ZCCL2 [2] | Secondary Screen ZCCL2 [3] | activity at 10 µM [4] | Primary Screen ZIL12b [5] | RNA Screening Ifng + LPS Il1b [6] | RNA Screening IL-4 Tgfb [7] | mrna remaining at 1 µM [8]
1 | CCCn1cc(NC(=O)NCc2nn(C)c3ccc(C)cc23)nn1 [Compound 1, N-[(1,5-dimethyl-1H-indazol-3-yl)methyl]-N′-(1-propyl-1H-1,2,3-triazol-4-yl)urea] | 1.05 | −1.85 | −0.72 | 134% | 0.93 |  |  | 
2 | COc1cccc2ccc(-c3ccc(N)nc3)nc12 [Compound 2, 5-(8-methoxyquinolin-2-yl)pyridin-2-amine] | 0.81 |  | 0.8 |  |  | + | − (significant decrease in mRNA vs control (mRNA levels above 50% of control)) | > 50%
3 | CCc1n[nH]c(SCC(=O)NCCC(=O)Nc2nccs2)n1 [Compound 3, 3-({[(3-ethyl-1H-1,2,4-triazol-5-yl)thio]acetyl}amino)-N-1,3-thiazol-2-ylpropanamide] | 1.56 |  | 1.33 |  |  | = | = | > 50%
4 | CCc1cc(NCCc2csc(N)n2)n2nc(C)c(C)c2n1 [Compound 4, N-[2-(2-amino-1,3-thiazol-4-yl)ethyl]-5-ethyl-2,3-dimethylpyrazolo[1,5-a]pyrimidin-7-amine] | 0.58 | 1.08 | −1.61 | 92% | 1.46 |  |  | 
5 | CC(=O)N1CCCn2nc(CNc3nc4ccccc4s3)cc2C1 [Compound 5, N-[(5-acetyl-5,6,7,8-tetrahydro-4H-pyrazolo[1,5-a][1,4]diazepin-2-yl)methyl]-1,3-benzothiazol-2-amine] | 0.72 | 1.04 | −1.33 | 127% | 1.64 |  |  | 
6 | CC(C)NC(=O)NCC1CCCN(Cc2ccc3c(c2)OCCO3)C1 (stereo not drawn) [Compound 6, N-{[1-(2,3-dihydro-1,4-benzodioxin-6-ylmethyl)piperidin-3-yl]methyl}-N′-isopropylurea] | 2.4 | 0.94 | 0.16 | 120% | 1.96 | + | − (significant decrease in mRNA vs control (mRNA levels above 50% of control)) | > 50%
7 | CC(O)c1cn(CC2CCN(C(=O)c3cscn3)CC2)nn1 (stereo not drawn) [Compound 7, 1-(1-{[1-(1,3-thiazol-4-ylcarbonyl)-4-piperidinyl]methyl}-1H-1,2,3-triazol-4-yl)ethanol] | 1.58 | −1.62 | −1.5 | 114% | 0.38 | + | −− (significant decrease in mRNA vs control (mRNA levels below 50% of control)) | < 50%
8 | CC(=O)N1CC2(CCN(S(C)(=O)=O)CC2)CC1C(=O)O (stereo not drawn) [Compound 8, 2-acetyl-8-(methylsulfonyl)-2,8-diazaspiro[4.5]decane-3-carboxylic acid] | 0.74 | −3.6 | −1.79 | 118% | 0.13 |  |  | 
9 | O=C(O)c1nc[nH]c1C(=O)N1CCN(c2ccccn2)CC1 [Compound 9, 5-[(4-pyridin-2-ylpiperazin-1-yl)carbonyl]-1H-imidazole-4-carboxylic acid] | 0.92 | −5.07 | −1.53 | 131% | 0.54 | + | + | > 50%
10 | CC(=O)N1CCN(Cc2cnn(-c3ccccc3Cl)c2)CC(O)C1 (stereo not drawn) [Compound 10, 1-acetyl-4-{[1-(2-chlorophenyl)-1H-pyrazol-4-yl]methyl}-1,4-diazepan-6-ol] | 1.64 | −1.59 | −0.36 | 121% | 0.55 | = | −− (significant decrease in mRNA vs control (mRNA levels below 50% of control)) | < 50%
11 | OCCc1cn(C2CCN(Cc3cccnc3)CC2)nn1 [Compound 11, 2-{1-[1-(3-pyridinylmethyl)-4-piperidinyl]-1H-1,2,3-triazol-4-yl}ethanol] | 2.04 | −2.99 | −1.46 | 127% | −1.17 | + | − (significant decrease in mRNA vs control (mRNA levels above 50% of control)) | < 50%
12 | CCc1n[nH]c(SCC(=O)N2CCC3(CC2)CC(C(=O)O)N(C)C3)n1 (stereo not drawn) [Compound 12, 8-{[(3-ethyl-1H-1,2,4-triazol-5-yl)thio]acetyl}-2-methyl-2,8-diazaspiro[4.5]decane-3-carboxylic acid] |  |  |  | 133% |  |  |  | 
13 | CN(C)c1cccc(C(=O)N2CCC3(CC2)CC(C(=O)O)N(C)C3)c1 (stereo not drawn) [Compound 13, 8-[3-(dimethylamino)benzoyl]-2-methyl-2,8-diazaspiro[4.5]decane-3-carboxylic acid] |  |  |  | 125% |  |  |  | 
14 | CNc1ncccc1C(=O)N1CCC2(CC1)CC(C(=O)O)N(C)C2 (stereo not drawn) [Compound 14, 2-methyl-8-{[2-(methylamino)-3-pyridinyl]carbonyl}-2,8-diazaspiro[4.5]decane-3-carboxylic acid] |  |  |  | 122% |  |  |  | 
15 | CCC(=O)N1CCC(c2ccc3c(c2)OCO3)C(O)C1 (stereo not drawn) [Compound 15, 1-(4-(benzo[d][1,3]dioxol-5-yl)-3-hydroxypiperidin-1-yl)propan-1-one] | 0.25 |  | −0.95 |  |  | + |  | < 50%
16 | O=C(O)CCc1cc2n(n1)CCCN(Cc1c[nH]nc1C(=O)O)C2 [Compound 16, 4-((2-(2-carboxyethyl)-7,8-dihydro-4H-pyrazolo[1,5-a][1,4]diazepin-5(6H)-yl)methyl)-1H-pyrazole-3-carboxylic acid] | 0.56 |  | −0.84 |  |  | + |  | < 50%
